Like-named read-outs stand apart in the source and are kept apart here.
How the values were obtained:
[1] = system: hepatocytes isolated from Wistar rat liver; assay: Test of inhibition of hepatic production of glucose (isolated hepatocytes, 3 h or 20 h incubation); format: cell-based; details: for activity at 50 µM / activity at 100 µM: Rattus norvegicus, Hepatocyte; for activity at 50 µM: read-out: HGP % of ctrl @ 50 μM; for activity at 100 µM: read-out: HGP % of ctrl @ 100 μM
Summary of the method: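 Hepatocytes from 24 h-fasted Wistar rats were cultured overnight in glucose-free RPMI with hydrocortisone (7.10^−5M). Glucose production was run for 3 h in Krebs with lactate/pyruvate plus compounds (0.1% DMSO final), or after an added 20 h pretreatment during the RPMI culture. Supernatant glucose was measured by glucose oxidase and expressed per mg protein (Lowry).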

[2] = system: isolated perfused pancreases of N0STZ diabetic rats; assay: Insulin secretion in response to glucose at isolated perfused pancreases of N0STZ diabetic rats; design: species or system rat; details: for Insulin secretion peak at G16.5 mM, Tested product: tested concentration 10 μM, glucose 16.5 mM, average +/- SEM; for restoring insulin secretion in response to glucose: isolated perfused pancreases of N0STZ diabetic rats
Description: The pancreas was taken on rats made to be diabetic by injection of Streptozotocin on the day of birth and anesthetized with Pentobarbital (Nembutal©: 45 mg/kg; intraperitoneal route). These rats have a specific deficiency of the insulin response to glucose, as observed in humans with diabetes of type II. The isolation and the perfusion of the pancreas were achieved according to a modification of the procedure described by Sussman et al.. The effect of the compounds or reference substances is tested for 35 minutes (from t=20 min to t=55 min) in Krebs buffer in the absence (GO) or in the presence of glucose at 2.8 mM (G2.8 mM), and then 20 minutes (from t=55 min to t=75 min) in the presence of glucose 16.5 mM. The concentration of insulin secreted into the medium is measured by an Elisa assay (ELISA Alpco Cat no. 80-INSRTH-E10). The results are expressed as an average+/−SEM (Standard Error of the Mean) of several experiments.

INS-1 cells = assay: Stimulation test of insulin secretion by INS-1 cells; format: cell-based; details: Rattus norvegicus, 1 h incubation, 3.5 mM glucose; for activity at 10 µM: INS1, compound at 10 μM, read-out: INS-1 % of ctrl @ 10 μM; for activity at 50 µM: INS1, compound at 50 μM, read-out: INS-1 % of ctrl @ 50 μM
Description: The different compounds were tested on an INS-1 beta-pancreatic line in order to evaluate their capability of potentializing the insulin secretion in response to glucose. Very briefly, the cells are cultivated in a culture medium, RPMI 1640 with 10 mM glucose containing 1 mM of sodium pyruvate, 50 μM of 2-mercaptoethanol, 2 mM of glutamine, 10 mM of HEPES, 100 IU/mL of penicillin, 100 μg/mL of streptomycin and 10% of inactivated fetal calf serum, as described by Asfari et al.. For the insulin secretion test, the INS-1 cells are sown and cultivated in 96-well plates. After 3 days of cultivation at 37° C. in a humid atmosphere (95% air/5% CO2), the medium is removed and the cells are incubated for 16 h in a medium containing 5 mM of glucose and 1% of inactivated fetal calf serum. On the day of the test, the cells are washed with a Krebs buffer (pH 7.4) containing 0.1% of bovine albumin and then pre-incubated for 30 min at 37° C. in this same buffer containing 2.8 mM of glucose. Finally, the cells are again washed with Krebs buffer and then incubated for 1 h in the buffer of the secretion test (Krebs, pH 7.4 containing 0.1% of bovine albumin and 3.5 mM of glucose and molecules to be evaluated). At the end of the test, the cell supernatant is recovered in order to measure therein the secreted insulin, by means of an ELISA kit using a rat anti-insulin antibody (ELISA Alpco Cat no. 80-INSRTH-E10). Each condition is tested in triplicate. The 3.5 mM glucose, the 10^−7M GLP-1 and the Forskoline 10^−7/IBMX 10^−5M mixtures are used as positive controls of the test. A compound stimulates the secretion of insulin if this factor is greater than or equal to 130% of the control for a given glucose dose.

[3] = 20 h, hepatic glucose production, rat hepatocytes, 20 h incubation, compound at 50 μM
[4] = 20 h, hepatic glucose production, rat hepatocytes, 20 h incubation, compound at 100 μM
[5] = 20 h incubation, with two doses
[6] = 3 h, hepatic glucose production, rat hepatocytes, 3 h incubation, compound at 50 μM
[7] = 3 h, hepatic glucose production, rat hepatocytes, 3 h incubation, compound at 100 μM

SMILES | activity at 10 µM (INS-1 cells) [%] | activity at 50 µM (INS-1 cells) [%] | activity at 50 µM [1, 3] [%] | activity at 100 µM [1, 4] [%] | activity at 50 µM [1, 6] [%] | activity at 100 µM [1, 7] [%] | further results
O=C(O)Cc1cc(C(=O)c2ccco2)sc1-c1ccc(Cl)cc1 [compound 56, 2-(2-(4-chlorophenyl)-5-(furan-2-carbonyl)thiophen-3-yl)acetic acid] |  |  |  |  |  |  | HGP % of ctrl @ 50 μM ([1]; hepatic glucose production, rat hepatocytes, 3 h incubation, compound at 50 μM): 94 % of ctrl; HGP % of ctrl @ 100 μM ([1]; hepatic glucose production, rat hepatocytes, 3 h incubation, compound at 100 μM): 70 % of ctrl; Insulin secretion peak at G16.5 mM, Tested product [2]: 845 ± 133 μU/min.
CCOC(=O)C(COC)c1cc(C(=O)c2ccc(OC)cc2)sc1-c1ccc(Cl)cc1 (stereo not drawn) [compound 124, ethyl 2-(2-(4-chlorophenyl)-5-(4-methoxybenzoyl)thiophen-3-yl)-3-methoxypropanoate] | 177 | 169 | 92 | 60 |  |  | restoring insulin secretion in response to glucose [2]: strongest secretions
CCOC(=O)Cc1cc(/C(=N/O)c2ccc(OC)cc2)sc1-c1ccc(Cl)cc1 [compound 104, ethyl 2-(2-(4-chlorophenyl)-5-((hydroxyimino)(4-methoxyphenyl)methyl)thiophen-3-yl)acetate] | 153 | 203 | 76 | 50 |  |  | 
CCOC(=O)Cc1cc(C(=O)c2ccc(OC)cc2)sc1-c1ccc(Cl)cc1 [compound 13, ethyl 2-(2-(4-chlorophenyl)-5-(4-methoxybenzoyl)thiophen-3-yl)acetate] | 155 |  | 58 | 35 | 84 | 69 | inhibition of hepatic production of glucose [1, 5]: strongest inhibitions; restoring insulin secretion in response to glucose [2]: strongest secretions; Insulin secretion peak at G16.5 mM, Tested product [2]: 1 489 μU/min.
CCOC(=O)Cc1cc(C(=O)c2ccc(OC)cc2)sc1-c1ccc(Cl)c(Cl)c1 [compound 157, ethyl 2-[2-(3,4-dichlorophenyl)-5-(4-methoxybenzoyl)-3-thienyl]acetate] |  | 140 |  |  | 97 | 74 | Insulin secretion peak at G16.5 mM, Tested product [2]: 989 ± 86 μU/min.
CCOC(=O)Cc1cc(C(=NOC)c2ccc(OC)cc2)sc1-c1ccc(Cl)cc1 [compound 106, ethyl 2-(2-(4-chlorophenyl)-5-((methoxyimino)(4-methoxyphenyl)methyl)thiophen-3-yl)acetate] | 148 | 151 | 74 | 45 |  |  | 
CCOC(=O)C(C)c1cc(C(=O)c2ccc(OC)cc2)sc1-c1ccc(Cl)cc1 (stereo not drawn) [compound 123, ethyl 2-(2-(4-chlorophenyl)-5-(4-methoxybenzoyl)thiophen-3-yl)propanoate] | 168 | 166 |  |  | 101 | 63 | 
CCOC(=O)Cc1cc(C(=O)C2CCCCC2)sc1-c1ccc(Cl)cc1 [compound 14, ethyl 2-(2-(4-chlorophenyl)-5-(cyclohexanecarbonyl)thiophen-3-yl)acetate] | 152 | 165 |  |  | 91 | 73 | 
CCOC(=O)Cc1cc(C(=O)c2ccco2)sc1-c1ccc(Cl)c(Cl)c1 [compound 158, ethyl 2-[2-(3,4-dichlorophenyl)-5-(furan-2-carbonyl)-3-thienyl]acetate] | 132 | 201 |  |  | 59 |  | inhibition of hepatic production of glucose ([1]; 3 h incubation, at the dose of 50 μM): strongest inhibitions
CC(C)OC(=O)Cc1cc(C(=O)c2ccco2)sc1-c1ccc(Cl)cc1F [compound 143, isopropyl 2-(2-(4-chloro-2-fluorophenyl)-5-(furan-2-carbonyl)thiophen-3-yl)acetate] | 127 | 233 |  |  | 89 | 72 | 
COC(=O)Cc1cc(C(=O)c2ccccn2)sc1-c1ccc(Cl)cc1 [compound 148] | 134 | 189 |  |  | 80 | 49 | 
COc1ccc(S(=O)(=O)c2cc(CC(=O)O)c(-c3ccc(Cl)c(Cl)c3)s2)cc1 [compound 175, 2-[2-(3,4-dichlorophenyl)-5-(4-methoxyphenyl)sulfonyl-3-thienyl]acetic acid] | 106 | 145 |  |  | 51 | 20 | inhibition of hepatic production of glucose ([1]; 3 h incubation, with two doses): strongest inhibitions
CCOC(=O)Cc1cc(C(=O)c2ccccc2)sc1-c1ccc(OC)cc1 [compound 35, ethyl 2-(5-benzoyl-2-(4-methoxy-phenyl)thiophen-3-yl)acetate] | 128 | 148 | 100 | 70 |  |  | 
COc1ccc(C(=O)c2cc(CC(=O)OC(C)(C)C)c(-c3ccc(Cl)cc3)s2)cc1 [compound 84, tert-butyl 2-(2-(4-chlorophenyl)-5-(4-methoxybenzoyl)thiophen-3-yl)acetate] | 139 | 153 | 85 | 40 |  |  | 
CC(C)OC(=O)Cc1cc(C(=O)c2ccco2)sc1-c1ccc(Cl)cc1 [compound 44, isopropyl 2-(2-(4-chlorophenyl)-5-(furan-2-carbonyl)thiophen-3-yl)acetate] | 180 | 223 | 71 | 61 | 83 | 69 | 
CCOC(=O)Cc1cc(C(=O)c2ccco2)sc1-c1cccc(F)c1F [compound 130, ethyl 2-(2-(2,3-difluorophenyl)-5-(furan-2-carbonyl)thiophen-3-yl)acetate] | 179 | 323 | 53 | 40 |  |  | inhibition of hepatic production of glucose [1, 5]: strongest inhibitions

Reference: patent publication US9777015B2, “Useful thiophene derivatives in the treatment of diabetes” (METABRAIN RESEARCH, priority 2012, dated 2017)
